# ChEMBL document CHEMBL1136374, “Inactivation of S-adenosyl-L-homocysteine hydrolase with novel 5'-thioadenosine derivatives. Antiviral effects” (Bioorg Med Chem Lett, 2003)
# Tested on: Vaccinia virus
# Experiment: Cytopathogenicity against vaccinia virus
# Assay type: functional
# Settings: Orthopoxvirus vaccinia
structure (smiles),measurement,value
C=CSC[C@H]1OC(n2cnc3c(N)ncnc32)[C@H](O)[C@@H]1O (stereo partly specified),MIC,30 µM
